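In this assay, cells in 96-well plates receive the compound at five concentrations for 48 hours. Endpoints are linearly interpolated between the surrounding concentrations. Abbreviation: GI50, concentration required for 50% inhibition of growth. TGI: total growth inhibition.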
System: MDA-MB-468 breast
Assay: growth of human tumour cells (NCI), 48 h

Structure (SMILES)	GI50 [nM]	TGI [nM]
CN1CCN(Cc2ccc(NC(=O)c3cncc(C#Cc4cnc(N)c5ccc(F)cc45)c3)cc2C(F)(F)F)CC1	1770	6670
CCCCCCC/C=C/[C@H]1O[C@]23C(=O)C[C@@]4(C[C@@H](OC5OC(CO)C(O)C(O)C5O)C[C@@H]4[C@H]2C=C1C)OC3=O (stereo partly drawn)	4580	13500
COc1ccc(/C=C/c2cc(OC)c(OC)c(OC)c2)cc1NC(=O)/C=C/c1ccc(F)cc1	1780	> 37500
CC(C)c1ccc(Cc2cnc(NC(=O)c3cc(Br)cs3)s2)cc1	1300	8670
COc1cc(OC)c(/C=C/c2ccc3ccccc3[n+]2C)c(OC)c1	161	763
O=C(Nc1cccc(C(F)(F)F)c1)c1cc(-c2ccc(F)cc2F)ccc1O	2220	6840
COc1cc(/C=C/c2cc(C(F)(F)F)[nH]c(=O)n2)ccc1OCc1ccccc1F	2970	14400
O=C(CN1CCOCC1)NNc1ncnc2ccccc12	3650	15600
Oc1ccc(Br)cc1Sc1cc(Br)ccc1O	4090	20800
COc1cccc(-c2nc3sccn3c2-c2ccnc(NCCNC(=O)Nc3cccc(C(F)(F)F)c3)n2)c1	2630	10400
O=C(Nc1ccc(Cl)cc1)Nc1ccc(Cl)c(Cl)c1	2610	11300
Cc1ccc(C(=O)c2oc3ccc4c(C)cc(=O)oc4c3c2C)cc1	12100	> 100000
COc1cc2nc(-c3ccc(C(F)(F)F)cc3)cc(OCCCN3CCOCC3)c2cc1OC	1240	5710
CC[N+](CC)=c1ccc2nc3c(cc(N)c4ccccc43)oc-2c1	21.9	132
COc1cc(-c2cnn(C)c2)ccc1Nc1ncc2ccnc(N[C@@H](C)C(C)(C)C)c2n1	> 74700	> 100000
Clc1nc(Oc2ccccc2)nc(-c2cn(-c3ccccc3)c3ccccc23)n1	2860	9940
CCOc1ccc(/C=C/C(=O)c2ccccc2)cc1	17300	34100

Structure (SMILES)	GI50 [nM]	TGI [nM]
C#C[C@]1(O)CC[C@H]2[C@@H]3CC=C4c5sc(Nc6cc(Cl)ccn6)nc5CC[C@]4(C)[C@H]3CC[C@@]21C	2190	6610
C=CC(=O)N1CCCC(n2nc(-c3ccc(Oc4ccccc4)cc3)c3c(N)ncnc32)C1 (stereo not drawn)	31.9	600
N#CCc1nc(C#N)c(N)o1	> 100000	> 100000
COc1c/c(=C2/C=c3ccccc3=N2)[nH]/c1=C/c1[nH]c(C)cc1C	311	1940
CC1=CSC2=NC(c3ccc(Cl)c(Cl)c3)=CC(c3ccc(Cl)cc3)N12 (stereo not drawn)	> 100000	> 100000
CCOC(=O)[C@@H](C)C[C@H](Cc1ccccc1)NC(=O)c1csc([C@@H](C[C@H](C(C)C)N(C)C(=O)[C@@H](NC(=O)[C@H]2C[C@H](O[Si](C)(C)C(C)(C)C)CCN2C)C(C)C)OC(C)=O)n1	75.4	5450
CC[N+](CCCCCCCCCC[N+](CC)(c1ccccn1)c1ccccn1)(c1ccccn1)c1ccccn1	206	1430
Cc1cc(/C=C2\SC(=Nc3ccccc3)N(C3CCCC3)C2=O)c(C)n1-c1ccc(Cl)cc1	48000	> 100000
COc1ccc2c(c1)sc1nc(-c3ccccc3)c(-c3ccsc3)n12	1980	5430
O=[N+]([O-])c1ccc2[nH]cc(-c3c4ccsc4cc4[nH]c5ccc([N+](=O)[O-])cc5c34)c2c1	805	2470
CCCCNc1nc(NC(C)(C)C)nc(NC(C)(C)C)n1	1490	34800
COC(=O)CCC/C=C\C[C@H]1C=CC(=O)/C1=C/C[C@@H](O)CCc1cccc(C(F)(F)F)c1	2010	5230
Nc1c(C(=O)c2ccccc2)sc2nc(-c3cccs3)ccc12	200	910
CC1(C)C=CC[C@]2(C)[C@H]3CC[C@@H]4[C@H]5[C@H](C(=O)/C=C/c6cccnc6)CC[C@]5(CO)CC[C@@]4(C)[C@]3(C)CC[C@@H]12	1340	2880
CC1=CC[C@@H]2CC[C@]3(C)[C@H](CC[C@@H]4[C@@]5(C)CCCNC(C)(C)[C@@H]5CC[C@]43C)[C@H]2[C@@H]1C	1680	3300
COc1cc(-c2nc3ccc(C)cc3[nH]2)ccc1OCC(=O)N=Nc1c(O)[nH]c2ccccc12	1750	3340
C=CCn1c(C)nc2cc(Nc3nc(Nc4ccc5nc(C)n(CC=C)c5c4)c4ccccc4n3)ccc21	203	521

From PubChem BioAssay (NCI)
